Measured values from PubChem BioAssay (NCI).
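1) Cells in 96-well plates. 2) Compound, 48 h, 5 concentrations. 3) Linear interpolation between surrounding doses. 4) Unreached endpoint = highest concentration. TGI denotes the concentration required for complete inhibition of growth.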

What was measured:
Experiment in all cases: growth of human tumour cells (NCI), 48 h
[1] = system: TK-10 renal
[2] = system: LXFL 529 NSCLC
[3] = system: HT29 colon
[4] = system: M19-MEL melanoma
[5] = system: SNB-19 CNS
[6] = system: OVCAR-8 ovarian
[7] = system: UACC-62 melanoma
[8] = system: DLD-1 colon
[9] = system: HCC-2998 colon
[10] = system: DMS 114 small cell lung
[11] = system: SF-539 CNS
[12] = system: SW-620 colon
[13] = system: KM12 colon
[14] = system: SF-268 CNS
[15] = system: A498 renal
[16] = system: SK-MEL-2 melanoma
[17] = system: COLO 205 colon
[18] = system: HCT-15 colon
[19] = system: UACC-257 melanoma
[20] = system: OVCAR-4 ovarian
[21] = system: EKVX NSCLC
[22] = system: NCI-H23 lung
[23] = system: K-562 leukemia
[24] = system: NCI-H226 lung
[25] = system: SN12C renal
[26] = system: ACHN renal
[27] = system: DMS 273 small cell lung
[28] = system: CAKI-1 renal
[29] = system: RXF 393 renal
[30] = system: HOP-62 NSCLC
[31] = system: IGROV1 ovarian
[32] = system: SNB-75 CNS
[33] = system: 786-0 renal
[34] = system: RPMI-8226 leukemia
[35] = system: A549 NSCLC
[36] = system: HCT-116 colon
[37] = system: MALME-3M melanoma
[38] = system: U251 CNS
[39] = system: SK-MEL-5 melanoma
[40] = system: OVCAR-3 ovarian
[41] = system: NCI-H522 lung
[42] = system: SNB-78 CNS
[43] = system: OVCAR-5 ovarian
[44] = system: MOLT-4 leukemia
[45] = system: SF-295 CNS
[46] = system: HOP-18 NSCLC
[47] = system: SK-OV-3 ovarian
[48] = system: UO-31 renal
[49] = system: KM20L2 colon
[50] = system: XF 498 CNS
[51] = system: M14 melanoma
[52] = system: CCRF-CEM leukemia
[53] = system: NCI-H460 lung
[54] = system: RXF-631 renal
[55] = system: HL-60(TB) leukemia
[56] = system: HOP-92 NSCLC
[57] = system: SR leukemia
[58] = system: SK-MEL-28 melanoma
[59] = system: LOX IMVI melanoma
[60] = system: MDA-MB-435
[61] = system: MDA-N
[62] = system: T-47D breast
[63] = system: BT-549 breast
[64] = system: DU-145 prostate
[65] = system: PC-3 prostate
[66] = system: MCF7 breast
[67] = system: HS 578T breast

Structure (SMILES): Cn1c(=O)nc2n(-c3ccc(F)cc3)c3ccccc3nc-2c1=O
- TGI [1]: 89.1 µM
- TGI [2]: > 100 µM
- TGI [3]: 38.7 µM
- TGI [4]: 10.6 µM
- TGI [5]: 37.4 µM
- TGI [6]: 67.4 µM
- TGI [7]: 25 µM
- TGI [8]: 62.1 µM
- TGI [9]: 49.8 µM
- TGI [10]: 28.6 µM
- TGI [11]: 46.5 µM
- TGI [12]: 34 µM
- TGI [13]: > 100 µM
- TGI [14]: > 100 µM
- TGI [15]: 93.4 µM
- TGI [16]: 51.1 µM
- TGI [17]: 22.1 µM
- TGI [18]: 37.4 µM
- TGI [19]: 28.5 µM
- TGI [20]: 27.8 µM
- TGI [21]: 32 µM
- TGI [22]: 42.8 µM
- TGI [23]: 45.8 µM
- TGI [24]: > 100 µM
- TGI [25]: 56.6 µM
- TGI [26]: 49.7 µM
- TGI [27]: 36 µM
- TGI [28]: 73.3 µM
- TGI [29]: 79.8 µM
- TGI [30]: > 100 µM
- TGI [31]: 56.5 µM
- TGI [32]: 91.6 µM
- TGI [33]: > 100 µM
- TGI [34]: 70.9 µM
- TGI [35]: 48.6 µM
- TGI [36]: 37.9 µM
- TGI [37]: 23 µM
- TGI [38]: 71.4 µM
- TGI [39]: 25.8 µM
- TGI [40]: 11 µM
- TGI [41]: 35.4 µM
- TGI [42]: 42.2 µM
- TGI [43]: 42.2 µM
- TGI [44]: 62.8 µM
- TGI [45]: 40.8 µM
- TGI [46]: > 100 µM
- TGI [47]: > 100 µM
- TGI [48]: > 100 µM
- TGI [49]: 48.7 µM
- TGI [50]: 34.3 µM
- TGI [51]: 67.3 µM
- TGI [52]: 63.7 µM
- TGI [53]: 80.7 µM

Structure (SMILES): c1ccc(-c2nc3sccn3n2)cc1
- TGI [1]: > 100 µM
- TGI [3]: > 100 µM
- TGI [4]: > 100 µM
- TGI [5]: > 100 µM
- TGI [6]: > 100 µM
- TGI [7]: > 100 µM
- TGI [54]: > 100 µM
- TGI [55]: > 100 µM
- TGI [10]: > 100 µM
- TGI [13]: > 100 µM
- TGI [14]: > 100 µM
- TGI [15]: > 100 µM
- TGI [19]: > 100 µM
- TGI [21]: > 100 µM
- TGI [56]: > 100 µM
- TGI [22]: > 100 µM
- TGI [23]: > 100 µM
- TGI [26]: > 100 µM
- TGI [27]: > 100 µM
- TGI [29]: > 100 µM
- TGI [30]: > 100 µM
- TGI [31]: > 100 µM
- TGI [35]: > 100 µM
- TGI [36]: > 100 µM
- TGI [38]: > 100 µM
- TGI [41]: > 100 µM
- TGI [43]: > 100 µM
- TGI [44]: > 100 µM
- TGI [45]: > 100 µM
- TGI [47]: > 100 µM
- TGI [48]: > 100 µM
- TGI [57]: > 100 µM
- TGI [51]: > 100 µM
- TGI [58]: > 100 µM
- TGI [52]: > 100 µM
- TGI [53]: > 100 µM

Structure (SMILES): COC(=O)NNc1c([N+](=O)[O-])cnn(-c2ccccc2)c1=O
- TGI [1]: 32.5 µM
- TGI [2]: 3.16 µM
- TGI [59]: 3.2 µM
- TGI [3]: 3.81 µM
- TGI [4]: 3.43 µM
- TGI [5]: 23.2 µM
- TGI [6]: 3.75 µM
- TGI [7]: 5.15 µM
- TGI [54]: 3.88 µM
- TGI [55]: 3.06 µM
- TGI [60]: 3.03 µM
- TGI [8]: 3.91 µM
- TGI [61]: 4.79 µM
- TGI [9]: 9.72 µM
- TGI [10]: 13.8 µM
- TGI [11]: 8.22 µM
- TGI [12]: 2.24 µM
- TGI [62]: 4.54 µM
- TGI [63]: 3.21 µM
- TGI [13]: 16.9 µM
- TGI [14]: 7.71 µM
- TGI [15]: 78.2 µM
- TGI [16]: 11.5 µM
- TGI [17]: 6.02 µM
- TGI [18]: 5.58 µM
- TGI [19]: 6.33 µM
- TGI [20]: 3.85 µM
- TGI [21]: 9.75 µM
- TGI [56]: 3.9 µM
- TGI [22]: 5.82 µM
- TGI [24]: 9.78 µM
- TGI [25]: 3.49 µM
- TGI [64]: 16.9 µM
- TGI [26]: 10.2 µM
- TGI [27]: 4 µM
- TGI [28]: 8.24 µM
- TGI [29]: 10.1 µM
- TGI [30]: 14.9 µM
- TGI [31]: 36.2 µM
- TGI [32]: 19.5 µM
- TGI [33]: 7.39 µM
- TGI [34]: 19.2 µM
- TGI [35]: 28.2 µM
- TGI [36]: 3.9 µM
- TGI [37]: 5.51 µM
- TGI [38]: 4.59 µM
- TGI [39]: 8.36 µM
- TGI [40]: 3.56 µM
- TGI [41]: 2.6 µM
- TGI [43]: 8.23 µM
- TGI [44]: 2.61 µM
- TGI [65]: 3.21 µM
- TGI [45]: 8.37 µM
- TGI [46]: 6.28 µM
- TGI [47]: 17 µM
- TGI [66]: 18 µM
- TGI [48]: 15.9 µM
- TGI [49]: 7.78 µM
- TGI [57]: 0.981 µM
- TGI [67]: 6.98 µM
- TGI [51]: 3.29 µM
- TGI [58]: 7.05 µM
- TGI [52]: 1.55 µM
- TGI [53]: 15.9 µM

Structure (SMILES): Cc1ccc(S(=O)(=O)NC(=O)C2(Br)S(=O)(=O)OCCOS2(=O)=O)cc1
- TGI [1]: > 100 µM
- TGI [2]: > 100 µM
- TGI [59]: > 100 µM
- TGI [3]: > 100 µM
- TGI [4]: > 100 µM
- TGI [5]: > 100 µM
- TGI [6]: > 100 µM
- TGI [7]: > 100 µM
- TGI [55]: > 100 µM
- TGI [8]: > 100 µM
- TGI [9]: > 100 µM
- TGI [10]: > 100 µM
- TGI [11]: > 100 µM
- TGI [14]: > 100 µM
- TGI [15]: > 100 µM
- TGI [16]: > 100 µM
- TGI [17]: > 100 µM
- TGI [18]: > 100 µM
- TGI [19]: > 100 µM
- TGI [20]: > 100 µM
- TGI [21]: > 100 µM
- TGI [56]: > 100 µM
- TGI [22]: > 100 µM
- TGI [23]: > 100 µM
- TGI [24]: > 100 µM
- TGI [25]: > 100 µM
- TGI [26]: > 100 µM
- TGI [27]: > 100 µM
- TGI [29]: > 100 µM
- TGI [30]: > 100 µM
- TGI [31]: > 100 µM
- TGI [32]: > 100 µM
- TGI [33]: > 100 µM
- TGI [34]: > 100 µM
- TGI [35]: > 100 µM
- TGI [36]: > 100 µM
- TGI [37]: > 100 µM
- TGI [38]: > 100 µM
- TGI [39]: > 100 µM
- TGI [40]: > 100 µM
- TGI [41]: > 100 µM
- TGI [42]: > 100 µM
- TGI [43]: > 100 µM
- TGI [44]: > 100 µM
- TGI [47]: > 100 µM
- TGI [48]: > 100 µM
- TGI [49]: > 100 µM
- TGI [57]: > 100 µM
- TGI [50]: > 100 µM
- TGI [51]: > 100 µM
- TGI [58]: > 100 µM
- TGI [52]: > 100 µM
- TGI [53]: > 100 µM
